Drawing on patent US20070227930A1, “Antimicrobial Product Combination” (priority 2006, published 2007), this text covers Allergen deactivating ability for one compound.

The test system of the assay is allergens. In words: Evaluation of oxidants and antimicrobials for allergen deactivating ability. The note with it: very dilute solution, on the order of 40-80 ppm. The source says: Presumably the low levels of oxidant are still able to break up the allergen proteins, rendering them biologically inert.

`OCl` [hypochlorous acid]: the Allergen deactivating ability entry is listed as “effectively deactivate allergens”.
